Results reported in paper PMC9458095, “In Vitro Evaluation of In Silico Screening Approaches in Search for Selective ACE2 Binding Chemical Probes” (Molecules, 2022).
Like-named read-outs stand apart in the source and are kept apart here.

Assays:
ACE2 [1] = target: T1, ACE2 (Homo sapiens, UniProt Q9BYF1); test: ACE2 inhibitor screening kit (Abcam ab273373), fluorescence enzymatic assay, MCA-based peptide substrate; assay type: biochemical; details: for inhibition at 20 µM: 20 µM final concentration, n = 1, 25 µL, read-out: Inhibition% (primary screen hits)
T1 construct: purchased Abcam ab273373
T1 sequence (Q9BYF1 18-805): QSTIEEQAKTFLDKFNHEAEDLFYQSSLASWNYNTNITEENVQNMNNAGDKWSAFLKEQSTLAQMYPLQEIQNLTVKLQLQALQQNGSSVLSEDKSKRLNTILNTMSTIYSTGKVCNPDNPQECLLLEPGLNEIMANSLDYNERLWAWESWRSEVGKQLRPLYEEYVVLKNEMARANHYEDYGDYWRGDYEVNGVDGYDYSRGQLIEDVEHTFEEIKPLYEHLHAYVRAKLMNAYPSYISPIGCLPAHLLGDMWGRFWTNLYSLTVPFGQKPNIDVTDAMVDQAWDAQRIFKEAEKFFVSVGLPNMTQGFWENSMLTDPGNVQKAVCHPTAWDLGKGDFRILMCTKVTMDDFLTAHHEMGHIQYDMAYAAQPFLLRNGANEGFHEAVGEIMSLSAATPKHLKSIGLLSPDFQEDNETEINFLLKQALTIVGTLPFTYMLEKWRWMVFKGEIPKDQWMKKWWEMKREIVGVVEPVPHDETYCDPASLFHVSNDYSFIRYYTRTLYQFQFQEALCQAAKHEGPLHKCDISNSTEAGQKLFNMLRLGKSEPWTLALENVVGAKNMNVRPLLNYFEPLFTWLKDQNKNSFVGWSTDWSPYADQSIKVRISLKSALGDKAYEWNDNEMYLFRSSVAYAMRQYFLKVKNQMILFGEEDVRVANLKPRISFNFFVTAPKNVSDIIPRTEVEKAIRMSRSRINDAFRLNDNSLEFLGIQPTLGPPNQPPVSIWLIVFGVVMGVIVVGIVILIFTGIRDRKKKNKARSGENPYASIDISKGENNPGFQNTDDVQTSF
From the text: Despite the commercial availability of ACE2 Inhibitor Screening Kits the optimal HTS protocols are still not published and their validation is still needed. Among available kits the Abcam, ab273373 was used. This assay is based on the ability of active angiotensin-converting enzyme (ACE2) to cleave a synthetic MCA-based peptide substrate (the structure not disclosed by the manufacturer) and release a free fluorophore. The released fluorophore can be easily quantified using a standard fluorescence microplate reader. During this screening campaign, the next milestones were estimated: (i) optimization of the test compounds solutions used volume (without loss of performance and analytical signal recognition); (ii) optimization of reaction volume and concentrations of the reagents; (iii) determination of IC50 for known inhibitor MLN-4760 (EN300-22203532) and reference inhibitor from the kit (the structure not disclosed by manufacturer) in new validated conditions; (iv) primary screening of 577 selected compounds; (v) hit confirmation; (vi) dose-response curve (DRC) of confirmed hits.
The commercial Abcam (ab273373) Angiotensin II Converting Enzyme (ACE2) Inhibitor Screening Kit and 384-well 3544 Corning low volume, black clear bottom plates were used. The reagent preparation was performed in accord with kit instruction. In order to prepare the required enzyme concentration, we dissolved […] of stock enzyme solution (concentration in stock and MW not disclosed) in 198 µL of ACE2 Dilution Buffer (provided by the Manufacturer), then aliquoted the entire volume into 25 µL and frozen at −70 °C. A substrate solution calculated for one assay well contained 0.5 µL of stock Substrate solution and 9.5 µL of ACE2 Assay Buffer, stored at −70 °C. Reference inhibitor from the kit (five µL in stock, structure, and MW not disclosed) was not aliquoted, 50 µL of ACE Assay Buffer should be added directly before the experiment.
Primary screen assay conditions. Volume: 25 µL; Concentrations: enzyme and substrate solutions prepared according to the instructions and further diluted both to 1:2 in the Assay mixture. Assay buffer: provided by the Manufacturer (composition not disclosed, see SI for reference). Compounds: 20 µM final concentrations in the Assay mixture, n = 1. Reference Inhibitors: (1) Ref. inhibitor provided by the Manufacturer, 300 nM, (n = 4); (2) Compound from Enamine library EN300-22203532, 2.5 nM, (n = 4). Temperature: 25 °C. The enzyme solution was added into corresponding plate wells (columns 1–22), and buffer was added into wells corresponding to negative (Enzyme) control (columns 23, 24). Plates were incubated for 15 min at 25 °C. Then Substrate solution was added to all experimental wells. Plates were centrifuged and measurement started in kinetic mode (Exc/Em 320/420 nm). Results processing: two time points were chosen from kinetic curves for all wells and corresponding RFU values were obtained. ΔRFU/Δt were calculated for each curve and % of inhibition values were calculated from the equation: 100%—ΔRFU of sample/ΔRFU of Enzyme control*100%, according to the recommendation of the Manufacturer.
DRC and IC50 calculations. Concentrations: enzyme and substrate solutions were diluted both to 1:2 in the Assay mixture. Assay buffer: provided by the Manufacturer (composition not disclosed). Temperature: 25 °C. Compounds: 2-fold titrated from 100 µM, n = 4. Reference Inhibitors: (1) Ref. inhibitor Abcam 2-fold titrated from 1.5 µM, (n = 4); (2) Ref. inhibitor EN300-22203532, 2-fold titrated from 20 nM, (n = 4). Compounds were incubated with enzyme for 15 min. Plates were measured in kinetic mode (Exc/Em 320/420 nm). […]

ACE2 [2] = target: T1, ACE2; test: as above; assay type: biochemical; details: DRC measured three times each, 3-fold titration, 25 µL, enzyme and substrate 1:2; read-out: IC50 of reference inhibitors in optimized conditions
human ACE2 (CHEMBL3736) = details: ChEMBL 26, cited from earlier work
[3] = dose-response of confirmed hits, as in Figure 10, read-out: IC50(ACE2)
[4] = dose-response, 2-fold titrated, n = 4, 15 min incubation with enzyme, 25 °C, enzyme and substrate 1:2, read-out: IC50 (DRC, Figure 9)

SMILES	inhibition at 20 µM (ACE2 [1]; enzyme and substrate 1:2) [%]	IC50 (ACE2 [1]; [3]) [µM]	IC50 (ACE2 [1]; [4]) [µM]	also measured
O=C(O)CSc1ccc(C(=O)/C=C/c2cnn(-c3ccccc3)c2)cc1F [Compound 5, OC(=O)CSc1ccc(cc1F)C(=O)C=Cc1cnn(c1)-c1ccccc1]	29.8	53.6		
O=C(O)CC(NC(=O)c1ccc(-c2ccc(F)cc2)o1)c1ccc(F)cc1 (centres unmarked) [Compound 3]	28.9	46.4		
CC(C)C[C@H](N[C@@H](Cc1cncn1Cc1cc(Cl)cc(Cl)c1)C(=O)O)C(=O)O [MLN-4760, reference compound]			0.2	IC50 (ACE2 [2]): 0.0009 to 0.0025 µM; %inh_Ref EN300-22203532, Plate 1 (ACE2 [1]; primary screen QC, 2.5 nM, n = 4, plate 1): 69.9%; %inh_Ref EN300-22203532, Plate 2 (ACE2 [1]; primary screen QC, 2.5 nM, n = 4, plate 2): 72.2%; IC50 (human ACE2 (CHEMBL3736); known selective ACE2 inhibitor): 0.00044 µM
Cc1ccc2nc(-c3ccc(NC(=O)CCC(=O)O)cc3)sc2c1 [Compound 2, Cc1ccc2nc(sc2c1)-c1ccc(NC(=O)CCC([O-])=O)cc1]	74.1		110	
CCC(C(=O)O)[S+]([O-])Cc1csc(-c2ccc3c(c2)OCO3)n1 (centres unmarked) [Compound 6]	50.1		67.3	
Cc1ccc(CCC2CCN(C(=O)CN3CCCC3C(=O)O)CC2)cc1 (centres unmarked) [Compound 4]	54	16.8		
CC[C@@H](C)[C@H](S)C(=O)N[C@@H](Cc1ccc(OCc2ccc(F)c(F)c2)cc1)C(=O)O [CHEMBL251808, CC[C@@H](C)[C@H](S)C(=O)N[C@@H](Cc1ccc(OCc2ccc(F)c(F)c2)cc1)C(O)=O]				Ki (human ACE2 (CHEMBL3736); known selective ACE2 inhibitors): 0.00085 µM
O=C(NC1CN(c2ccccc2)C1=O)c1ncccc1O (centres unmarked) [Compound 7]	52.1	269		
CC(NC(=O)CCCCC(=O)O)c1ccc(-c2ccc(N(C)C)cc2)cc1 (centres unmarked) [Compound 1]	38.8	45.8		
